From patent US20150299219A1, “BICYCLIC PYRAZOLONE COMPOUNDS AND METHODS OF USE” (Calitor Sciences, LLC, priority 2014, published 2015)

Legend:
[1] = Pharmacokinetic profiles in rats; format: in vivo; conditions: for clearance (CL) / AUC(0-t) / half-life / Vd: iv dosing, 1 mg/kg; for AUC(0-t) / half-life / Vd / bioavailability: rat, plasma; for Vd: read-out: Vss; for bioavailability: po, bioavailability (F)
Method: The LC/MS/MS system used in the analysis consists of an Agilent 1200 Series vacuum degasser, binary pump, well-plate autosampler, thermostatted column compartment, the Agilent G6430 Triple Quadrupole Mass Spectrometer with an electrosprayionization (ESI) source. Quantitative analysis was carried out using MRM mode. The parameters for MRM transitions are in the Table A.
An Agilent XDB-C18, 2.1×30 mm, 3.5 μM column was used for the analysis. 5 μL of the samples were injected. Analysis condition: The mobile phase was 0.1% formic acid in water (A) and 0.1% formic acid in methanol (B). The flow rate was 0.4 mL/min. And the gradient of Mobile phase was in the Table B.
Alternatively, an Agilent 6330 series LC/MS/MS spectrometer equipped with G1312A binary pumps, a G1367A autosampler and a G1314C UV detector were used in the analysis. An ESI source was used on the LC/MS/MS spectrometer. The analysis was done in positive ion mode as appropriate and the MRM transition for each analyte was optimized using standard solution. A Capcell MP-C18 100×4.6 mm I.D., […] column (Phenomenex, Torrance, Calif., USA) was used during the analysis. The mobile phase was 5 mM ammonia acetate, 0.1% MeOH in water (A): 5 mM ammonia acetate, 0.1% MeOH in acetonitrile (B) (70/30, v/v). The flow rate was 0.6 mL/min. Column was maintained at ambient temperature. 20 μL of the samples were injected.
The compounds disclosed herein are assessed in pharmacokinetic studies in mice, rats, dogs or monkeys. The compounds are administered as a water solution, 2% HPMC+1% TWEEN®80 in water solution, 5% DMSO+5% solutol in saline, 4% MC suspension or capsule. For the intravenous administration, the animals are generally given at 1 or 2 mg/kg dose. For the oral (p.o.) dosing, mice and rats are generally given 5 or 10 mg/kg dose, and dogs and monkeys are generally given 10 mg/kg dose. The blood samples (0.3 mL) are drawn at 0.25, 0.5, 1.0, 2.0, 3.0, 4.0, 6.0, 8.0, 12 and 24 h time points or 0.083, 0.25, 0.5, 1.0, 2.0, 4.0, 6.0, 8.0 and 24 h time points and centrifuged at 3,000 or 4000 rpm for 2 to 10 min. The plasma solutions are collected, and stored at −20° C. or −70° C. until analyzed by LC/MS/MS as described above.

c-Met (h) = molecular target: T1, c-Met (h) (Homo sapiens, UniProt P08581); test: c-Met (h) kinase assay; format: biochemical
T1 construct: purchased Millipore UK Ltd
T1 sequence (P08581 25-1390): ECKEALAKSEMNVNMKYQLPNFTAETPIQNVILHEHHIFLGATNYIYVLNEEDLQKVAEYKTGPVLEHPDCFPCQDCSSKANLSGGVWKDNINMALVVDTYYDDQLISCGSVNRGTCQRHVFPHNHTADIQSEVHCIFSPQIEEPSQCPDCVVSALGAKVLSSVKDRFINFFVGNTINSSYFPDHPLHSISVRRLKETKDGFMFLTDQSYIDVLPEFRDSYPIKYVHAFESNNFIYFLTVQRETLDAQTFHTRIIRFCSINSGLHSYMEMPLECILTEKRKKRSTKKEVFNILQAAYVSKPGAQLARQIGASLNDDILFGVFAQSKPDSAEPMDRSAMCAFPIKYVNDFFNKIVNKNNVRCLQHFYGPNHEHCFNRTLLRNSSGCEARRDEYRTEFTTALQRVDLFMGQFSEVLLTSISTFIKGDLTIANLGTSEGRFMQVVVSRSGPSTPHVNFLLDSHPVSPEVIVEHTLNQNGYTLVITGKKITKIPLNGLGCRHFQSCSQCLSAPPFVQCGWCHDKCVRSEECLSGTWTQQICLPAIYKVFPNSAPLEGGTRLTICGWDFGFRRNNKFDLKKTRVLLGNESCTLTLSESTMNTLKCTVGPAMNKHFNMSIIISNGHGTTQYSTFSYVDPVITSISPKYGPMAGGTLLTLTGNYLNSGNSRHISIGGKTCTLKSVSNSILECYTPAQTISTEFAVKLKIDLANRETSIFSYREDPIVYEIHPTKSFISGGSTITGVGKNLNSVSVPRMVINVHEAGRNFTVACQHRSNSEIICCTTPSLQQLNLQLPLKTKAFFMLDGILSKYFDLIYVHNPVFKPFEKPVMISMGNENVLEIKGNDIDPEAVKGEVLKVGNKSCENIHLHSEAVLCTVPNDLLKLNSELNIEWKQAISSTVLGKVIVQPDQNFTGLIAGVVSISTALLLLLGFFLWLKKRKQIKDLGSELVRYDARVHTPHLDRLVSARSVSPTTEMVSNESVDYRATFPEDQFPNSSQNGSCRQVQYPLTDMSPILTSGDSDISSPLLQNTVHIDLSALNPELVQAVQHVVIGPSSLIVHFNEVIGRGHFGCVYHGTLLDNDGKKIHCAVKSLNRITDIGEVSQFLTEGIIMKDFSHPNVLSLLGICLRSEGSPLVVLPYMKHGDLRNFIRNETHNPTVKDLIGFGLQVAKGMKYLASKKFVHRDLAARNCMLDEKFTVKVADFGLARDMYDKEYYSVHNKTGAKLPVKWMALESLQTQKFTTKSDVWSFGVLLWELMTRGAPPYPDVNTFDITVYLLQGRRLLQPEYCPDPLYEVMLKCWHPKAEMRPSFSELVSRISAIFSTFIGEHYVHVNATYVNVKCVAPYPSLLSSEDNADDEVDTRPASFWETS
Method: Kinase assays can be performed by measurement of incorporation of γ-^33P ATP into immobilized myelin basic protein (MBP). High binding white 384 well plates (Greiner) are coated with MBP (Sigma #M-1891) by incubation of 60 μL/well of 20 μg/mL MBP in Tris-buffered saline (TBS; 50 mM Tris pH 8.0, 138 mM NaCl, 2.7 mM KCl) for 24 h at 4° C. Plates are washed 3× with 100 μL TBS. Kinase reactions are carried out in a total volume of 34 μL in kinase buffer (5 mM Hepes pH 7.6, 15 mM NaCl, 0.01% bovine gamma globulin (Sigma #I-5506), 10 mM MgCl2, 1 mM DTT, 0.02% TritonX-100). Compound dilutions are performed in DMSO and added to assay wells to a final DMSO concentration of 1%. Each data point is measured in duplicate, and at least two duplicate assays are performed for each individual compound determination. Enzyme is added to final concentrations of 10 nM or 20 nM, for example. A mixture of unlabeled ATP and γ-^33P ATP is added to start the reaction (2×10^6 cpm of γ-^33P ATP per well (3000 Ci/mmole) and 10 μM unlabeled ATP, typically. The reactions are carried out for 1 h at room temperature with shaking. Plates are washed 7× with TBS, followed by the addition of 50 μL/well scintillation fluid (Wallac). Plates are read using a Wallac Trilux counter. This is only one format of such assays; various other formats are possible, as known to one skilled in the art.
The above assay procedure can be used to determine the IC50 for inhibition and/or the inhibition constant, Ki. The IC50 is defined as the concentration of compound required to reduce the enzyme activity by 50% under the condition of the assay. The IC50 value is estimated by preparing a 10 point curve using a 1/2 log dilution series (for example, a typical curve may be prepared using the following compound concentrations: 10 μM, 3 μM, 1 μM, 0.3 μM, 0.1 μM, 0.03 μM, 0.01 μM, 0.003 μM, 0.001 μM and 0 μM).
Met (h) is incubated with 8 mM MOPS pH 7.0, 0.2 mM EDTA, 250 μM KKKSPGEYVNIEFG, 10 mM MgAcetate and [γ-^33P-ATP] (specific activity approx. 500 cpm/pmol, concentration as required). The reaction is initiated by the addition of the MgATP mix. After incubation for 40 minutes at room temperature, the reaction is stopped by the addition of 3% phosphoric acid solution. 10 μL of the reaction is then spotted onto a P30 filtermat and washed three times for 5 minutes in 75 mM phosphoric acid and once in methanol prior to drying and scintillation counting.
The kinase assays described herein were performed at Millipore UK Ltd, Dundee Technology Park, Dundee DD2 1SW, UK.

clearance (CL) [1] [mL/min/kg]	AUC(0-t) [1] [ng·h/mL]	half-life [1] [h]	Vd [1] [L/kg]	bioavailability [1] [%]	IC50 (c-Met (h)) [nM]	SMILES
0.55	27200	7.71	0.313	68.1	26	O=C(Nc1ccc(Oc2ccnc(NC(=O)C3CC3)c2)cc1)c1c2n(n(-c3ccccc3)c1=O)CCC2 [Ex. 2, N-(4-((2-(cyclopropanecarboxamido)pyridin-4-yl)oxy)phenyl)-2-oxo-1-phenyl-2,4,5,6-tetrahydro-1H-pyrrolo[1,2-b]pyrazole-3-carboxamide]
0.65	26300	3.83	0.18	94.5	100	CC(=O)Nc1cc(Oc2ccc(NC(=O)c3c4n(n(-c5ccccc5)c3=O)CCC4)cc2)ccn1 [Ex. 3, N-(4-((2-acetamidopyridin-4-yl)oxy)phenyl)-2-oxo-1-phenyl-2,4,5,6-tetrahydro-1H-pyrrolo[1,2-b]pyrazole-3-carboxamide]
0.333	46700	6.68	0.136	72.1	54	CC(=O)Nc1cc(Oc2ccc(NC(=O)c3c4n(n(-c5ccccc5)c3=O)CCOC4)nc2)ccn1 [Ex. 12, N-(5-((2-acetamidopyridin-4-yl)oxy)pyridin-2-yl)-2-oxo-1-phenyl-2,4,6,7-tetrahydro-1H-pyrazolo[5,1-c][1,4]oxazine-3-carboxamide]
1.27	12900	5.01	0.359	87.9	21	O=C(Nc1ccc(Oc2ccnc(NC(=O)C3CC3)c2)cn1)c1c2n(n(-c3ccccc3)c1=O)CCC2 [Ex. 14, N-(5-((2-(cyclopropanecarboxamido)pyridin-4-yl)oxy)pyridin-2-yl)-2-oxo-1-phenyl-2,4,5,6-tetrahydro-1H-pyrrolo[1,2-b]pyrazole-3-carboxamide]
0.3	50100	7.09	0.15	66.7	41	O=C(Nc1ccc(Oc2ccnc(NC(=O)C3CC3)c2)cc1)c1c2n(n(-c3ccccc3)c1=O)CCOC2 [Ex. 19, N-(4-((2-(cyclopropanecarboxamido)pyridin-4-yl)oxy)phenyl)-2-oxo-1-phenyl-2,4,6,7-tetrahydro-1H-pyrazolo[5,1-c][1,4]oxazine-3-carboxamide]
